Like-named read-outs stand apart in the source and are kept apart here. Numbered stars: 1 amine (or outer) side, 2 acyl side, 3 side chain; on linkers, the order of the positions; unused ones are H or OH. Square brackets hold non-standard residues; d marks the D form. Peptide text beside a SMILES is read from it. * marks the point of attachment. ξ: configuration not given here. X1 = CC[C@H](C)[C@H]([C@@H](CC(=O)[*:2])OC)N(C)[*:1]; Phe(4-NO2) = N[C@@H](Cc1ccc([N+](=O)[O-])cc1)C(=O)O; Dolaproine = CO[C@@H]([C@@H]1CCCN1)[C@@H](C)C(=O)O; ξDil = CC[C@H](C)C([C@@H](CC(=O)[*:2])OC)N(C)[*:1]; Dil = CC[C@H](C)[C@H](NC)[C@@H](CC(=O)O)OC; Phe(4-NH2) = Nc1ccc(C[C@H](N)C(=O)O)cc1; NMe2Val = CC(C)[C@@H](C(=O)*)N(C)C; X2 = C[C@@H](N*)[C@@H](O)c1ccccc1; NMeV = CN[C@H](C(=O)O)C(C)C; ξF = NC(Cc1ccccc1)C(=O)O; ξV = CC(C)C(N)C(=O)O
Test system: FaDu cells
Assay: Potency of AF derivatives: FaDu cell viability by the MTT method
Format: cell-based
Settings: for IC50: exposure to toxins for 120 hours, MTT; for potency in FaDu cells compared with MMAE and auristatin F (AF): statement in words on Table 2
Description: FaDu cells were seeded in Corning CellBIND 96-well plates at densities of 2500 cells/well. […] Then, the cells were rinsed once and assayed for cell viability with the MTT method. The old medium was aspirated and 100 uL of 0.5 mg/mL MTT containing medium was added into each well. After incubation for 4 hours, the MTT reagent was removed and the precipitate was dissolved in DMSO. The photometry intensity of the cells was measured by the microplate reader (Multiskan Ascent, Thermo Labsystems) of absorbance wavelength at 570 nm. Cell viability was calculated by the following equation. Cell Viability (%)=(Ins−Inb)/(Inc−Inb)×100%
In this equation, “Ins” is the photometry intensity of the cells incubated with a given toxin, “Inb” is the intensity of a blank well without cell seeding, and “Inc” is the intensity of the cells incubated with the culture medium only (positive control).

SMILES	IC50 (n=6) [nM]	IC50 (Homo sapiens, FaDu, 120 h, n=6) [nM]	potency in FaDu cells compared with MMAE and auristatin F (AF)	IC50 (n=6, read-out: IC50) [nM]
CC[C@H](C)C([C@@H](CC(=O)N1CCC[C@H]1[C@H](OC)[C@@H](C)C(=O)NC(Cc1ccc(N)cc1)C(=O)Nc1cnc2ccccc2c1)OC)N(C)C(=O)C(NC(=O)[C@H](C(C)C)N(C)C)C(C)C (some centres unmarked) [3AQ-AAF]	0.49	–	–	–
CC[C@H](C)C([C@@H](CC(=O)N1CCC[C@H]1[C@H](OC)[C@@H](C)C(=O)NC(Cc1ccc(N)cc1)C(=O)Nc1cnc2ccccc2c1)OC)N(C)C(=O)C(NC(=O)[C@H](C(C)C)N(C)C)C(C)C (some centres unmarked) [3AQ-ANF]	–	0.35	comparable to the well-known toxin MMAE	–
CC[C@H](C)[C@@H]([C@@H](CC(=O)N1CCC[C@H]1[C@H](OC)[C@@H](C)C(=O)N[C@@H](Cc1ccccc1)C(=O)O)OC)N(C)C(=O)[C@@H](NC(=O)[C@H](C(C)C)N(C)C)C(C)C [AF, auristatin F, reference compound] (NMe2Val-V[Dil][Dolaproine]F-OH)	–	–	–	15.2
CC[C@H](C)[C@H]([C@@H](CC(=O)N1CCC[C@H]1[C@H](OC)[C@@H](C)C(=O)NC(Cc1ccccc1)C(=O)N[C@@H](Cc1ccc(N)cc1)C(=O)O)OC)N(C)C(=O)[C@@H](NC(=O)[C@H](C(C)C)N(C)C)C(C)C (some centres unmarked) [APEA(COOH)-AF] (NMe2Val-V[X1][Dolaproine][ξF][Phe(4-NH2)]-OH)	–	> 100	least potency	–
CC[C@H](C)[C@H]([C@@H](CC(=O)N1CCC[C@H]1[C@H](OC)[C@@H](C)C(=O)NC(Cc1ccccc1)C(=O)N[C@@H](Cc1ccc(N)cc1)C(=O)OC)OC)N(C)C(=O)[C@@H](NC(=O)[C@H](C(C)C)N(C)C)C(C)C (some centres unmarked) [APEA(COOMe)-AF] (NMe2Val-V[X1][Dolaproine][ξF][Phe(4-NH2)]-OMe)	–	0.93	comparable to the well-known toxin MMAE	–
CC[C@H](C)C([C@@H](CC(=O)N1CCC[C@H]1[C@H](OC)[C@@H](C)C(=O)NC(Cc1ccccc1)C(=O)NCCc1ccc(N)cc1)OC)N(C)C(=O)C(NC(=O)[C@H](C(C)C)N(C)C)C(C)C (some centres unmarked) [APEA-AF]	–	0.7	comparable to the well-known toxin MMAE	–
CC[C@H](C)[C@@H]([C@@H](CC(=O)N1CCC[C@H]1[C@H](OC)[C@@H](C)C(=O)N[C@H](C)[C@@H](O)c1ccccc1)OC)N(C)C(=O)[C@@H](NC(=O)[C@@H](NC)C(C)C)C(C)C [MMAE, reference compound] (H-[NMeV]V[Dil][Dolaproine]-X2)	–	–	–	0.38
CC[C@H](C)C([C@@H](CC(=O)N1CCC[C@H]1[C@H](OC)[C@@H](C)C(=O)NC(Cc1ccccc1)C(=O)N[C@@H](Cc1ccc([N+](=O)[O-])cc1)C(=O)O)OC)N(C)C(=O)C(NC(=O)[C@H](C(C)C)N(C)C)C(C)C (some centres unmarked) [NPEA(COOH)-AF] (NMe2Val-[ξV][ξDil][Dolaproine][ξF][Phe(4-NO2)]-OH)	–	23.2	–	–
CC[C@H](C)C([C@@H](CC(=O)N1CCC[C@H]1[C@H](OC)[C@@H](C)C(=O)NC(Cc1ccccc1)C(=O)N[C@@H](Cc1ccc([N+](=O)[O-])cc1)C(=O)OC)OC)N(C)C(=O)C(NC(=O)[C@H](C(C)C)N(C)C)C(C)C (some centres unmarked) [NPEA(COOMe)-AF] (NMe2Val-[ξV][ξDil][Dolaproine][ξF][Phe(4-NO2)]-OMe)	–	0.44	comparable to the well-known toxin MMAE	–
CC[C@H](C)C([C@@H](CC(=O)N1CCC[C@H]1[C@H](OC)[C@@H](C)C(=O)NC(Cc1ccc(N)cc1)C(=O)NCCc1ccccc1)OC)N(C)C(=O)C(NC(=O)[C@H](C(C)C)N(C)C)C(C)C (some centres unmarked) [PEA-AAF]	0.39	–	–	–
CC[C@H](C)C([C@@H](CC(=O)N1CCC[C@H]1[C@H](OC)[C@@H](C)C(=O)NC(Cc1ccc(N)cc1)C(=O)NCCc1ccccc1)OC)N(C)C(=O)C(NC(=O)[C@H](C(C)C)N(C)C)C(C)C (some centres unmarked) [PEA-ANF]	1.26	–	comparable to the well-known toxin MMAE	–
